Experimental data as given in PMC6272861, “In Vitro Inhibition of Human UDP-Glucuronosyl-Transferase (UGT) Isoforms by Astaxanthin, β-Cryptoxanthin, Canthaxanthin, Lutein, and Zeaxanthin: Prediction of in Vivo Dietary Supplement-Drug Interactions” (Molecules, 2016).
Where two headings read alike, the source gives them in different places.

Columns and labels:
[1] = target: T1, UGT2B15 (Homo sapiens, UniProt P54855); assay: Inhibition of UGT2B15 (4-methylumbelliferyl glucuronidation) in recombinant human UGT2B15 supersomes; type: in vitro ADME
T1 construct: purchased Corning Life Sciences
T1 sequence (P54855 24-530): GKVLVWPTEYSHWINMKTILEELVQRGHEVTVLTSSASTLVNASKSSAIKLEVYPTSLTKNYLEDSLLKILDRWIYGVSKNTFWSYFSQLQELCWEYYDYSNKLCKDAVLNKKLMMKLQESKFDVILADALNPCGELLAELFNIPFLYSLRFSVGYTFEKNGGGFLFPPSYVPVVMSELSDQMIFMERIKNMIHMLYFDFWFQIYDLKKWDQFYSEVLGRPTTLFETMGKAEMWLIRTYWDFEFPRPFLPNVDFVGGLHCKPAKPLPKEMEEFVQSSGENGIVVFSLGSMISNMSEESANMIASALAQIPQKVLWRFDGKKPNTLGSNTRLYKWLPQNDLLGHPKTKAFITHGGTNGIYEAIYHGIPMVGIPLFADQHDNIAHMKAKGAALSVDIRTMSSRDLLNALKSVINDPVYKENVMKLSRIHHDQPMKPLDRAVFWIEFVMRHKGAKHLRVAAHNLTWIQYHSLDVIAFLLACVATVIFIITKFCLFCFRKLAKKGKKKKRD
Description: Although S-oxazepam is a typical substrate of UGT2B15 of human liver microsomes, authentic S-oxazepam and the corresponding glucuronide are not commercially […]. Thus, the inhibition of AS, βC, CA, LU, and ZE on the UGT2B15 activity was assessed using 4-methylumbelliferone as the nonspecific probe substrate for all UGTs except UGT1A4 [34] in recombinant human UGT2B15 supersomes.
The reaction was initiated by addition of 10 µL 5 mM UDPGA (to 100 µL total volume) followed by incubation for 120 min at 37 °C in a shaking water bath. Reactions were stopped by addition of 50 µL of ice-cold acetonitrile containing chlorpropamide (300 ng/mL) as an internal standard, and they were chilled and centrifuged (13,000 g, 15 min, 4 °C). An aliquot of 5 μL of supernatant was injected into an LC-MS/MS system. Additionally, identical parallel incubation samples containing a known UGT2B15 inhibitor amitriptyine (0–200 μM) was included as a positive control for UGT2B15.
(§1) For visual inspection, data were presented as Dixon plots.

[2] = target: T2, UGT1A4 (Homo sapiens, UniProt P22310); assay: Inhibition of UGT1A4 (trifluoperazine-N-glucuronidation) in human liver microsomes; type: in vitro ADME; details: for IC50: 4 μM trifluoperazine, mean ± SD of triplicate, read-out: IC50 towards UGT1A4; for Residual UGT1A4 enzyme activity: highest tested concentration 50 μM
T2 construct: pooled human liver microsomes (final concentration 0.25 mg/mL); tissue Corning Life Sciences; host or cells: pooled human liver microsomes, 150 donors
T2 sequence (P22310 29-534): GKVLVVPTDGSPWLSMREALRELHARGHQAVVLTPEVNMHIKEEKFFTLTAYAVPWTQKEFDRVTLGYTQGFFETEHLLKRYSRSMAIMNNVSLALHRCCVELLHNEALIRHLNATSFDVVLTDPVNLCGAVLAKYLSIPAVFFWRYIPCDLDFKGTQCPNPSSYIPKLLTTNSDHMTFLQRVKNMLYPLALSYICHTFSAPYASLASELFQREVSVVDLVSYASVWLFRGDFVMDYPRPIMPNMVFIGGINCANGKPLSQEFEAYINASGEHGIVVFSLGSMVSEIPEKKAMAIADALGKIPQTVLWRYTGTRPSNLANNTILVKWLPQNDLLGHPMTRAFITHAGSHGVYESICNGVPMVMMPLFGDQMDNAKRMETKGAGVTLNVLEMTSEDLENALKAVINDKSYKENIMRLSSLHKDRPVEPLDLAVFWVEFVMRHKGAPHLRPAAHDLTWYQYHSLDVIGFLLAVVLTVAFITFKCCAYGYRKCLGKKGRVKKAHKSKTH
Description: The formation activities of β-estradiol-3-glucuronide, chenodeoxycholic acid 24-acyl-β-D-glucuronide, trifluoperazine-N-glucuronide, imipramine-N-β-D-glucuronide, serotonin-O-glucuronide, propofol-O-glucuronide, and zidovudine-5′-glucuronide were determined to probe the activities of UGT1A1, UGT1A3, UGT1A4, UGT1A6, UGT1A9 and UGT2B7, respectively, in human liver microsomes.
In brief, the 90-µL incubation mixture, including pooled human liver microsomes (final concentration 0.25 mg/mL), 100 mM Tris buffer, 25 µg/mL alamethicin, 5 mM MgCl2, the UGT-selective substrates, and five xanthophylls (0–50 μM), were pre-incubated for 30 min on ice to allow formation of alamethicin pores. Reac2345tions were initiated by the addition of 10 μL of UDPGA (5 mM) to a final reaction volume of 0.1 mL and incubated at 37 °C for 60 min (except 30 min for UGT1A9) in a shaking water bath. After incubation, each reaction was stopped by adding 50 μL of ice-cold acetonitrile containing chlorpropamide (300 ng/mL) or theophylline (30 μg/mL or 300 μg/mL) as an internal standard. The mixtures were then centrifuged (13,000 g for 15 min at 4 °C) and 5-µL aliquots of the supernatants were injected into an LC-MS/MS system. […] All incubations were performed in triplicate, and mean values were used for analysis.
Chromatographic separations were performed on an Agilent Poroshell 120 EC-C18 column (50 mm × 4.6-mm i.d.; 2.7-μm particle size; Agilent Technologies) to quantify β-estradiol-3-glucuronide (UGT1A1), chenodeoxycholic acid 24-acyl-β-D-glucuronide (UGT1A3), trifluoperazine-N-glucuronide (UGT1A4), propofol-O-glucuronide (UGT1A9), zidovudine-5′-glucuronide (UGT2B7), and 4-methylumbelliferyl glucuronide (UGT2B15); an Agilent Poroshell 120 EC-C18 column (100 × 4.6-mm i.d.; 2.7-mm particle size) was used for quantification of serotonin-O-glucuronide (UGT1A6). The isocratic mobile phase consisted of distilled water (A) and acetonitrile containing 0.1% formic acid (B) at a ratio (v/v) of 10:90 for chenodeoxycholic acid 24-acyl-β-D-glucuronide, 30:70 for trifluoperazine-N-glucuronide and zidovudine-5′-glucuronide, 50:50 for propofol-O-glucuronide and 4-methylumbelliferyl glucuronide, 65:35 for β-estradiol-3-glucuronide, and 90:10 for serotonin-O-glucuronide, at a flow rate of 0.5 mL/min. The total run time was 4.0 min per sample for each metabolite, with the exception of serotonin-O-glucuronide (6.0 min). Peak areas for all of the analytes were automatically integrated using Analyst software (version 1.5.2, Applied Biosystems, Foster City, CA, USA).
The IC50 values were calculated via nonlinear least-squares regression analysis from plots of the logarithms of inhibitor concentration vs. the residual percentages of activities after inhibition, using WinNonlin (ver. 4.0; Pharsight, Mountain View, CA, USA).

[3] = parameters: method as in PMID 13129448; details: healthy subjects, single-dose carotenoid supplement containing 1.3 mg of esterified βC, oral; read-out: mean Cmax (maximum plasma concentration); cited from earlier work
[4] = target: T3, UGT1A1 (Homo sapiens, UniProt P22309); assay: Ki determination on UGT1A1 activity (β-estradiol-3-glucuronidation) in human liver microsomes
T3 sequence (P22309 26-533): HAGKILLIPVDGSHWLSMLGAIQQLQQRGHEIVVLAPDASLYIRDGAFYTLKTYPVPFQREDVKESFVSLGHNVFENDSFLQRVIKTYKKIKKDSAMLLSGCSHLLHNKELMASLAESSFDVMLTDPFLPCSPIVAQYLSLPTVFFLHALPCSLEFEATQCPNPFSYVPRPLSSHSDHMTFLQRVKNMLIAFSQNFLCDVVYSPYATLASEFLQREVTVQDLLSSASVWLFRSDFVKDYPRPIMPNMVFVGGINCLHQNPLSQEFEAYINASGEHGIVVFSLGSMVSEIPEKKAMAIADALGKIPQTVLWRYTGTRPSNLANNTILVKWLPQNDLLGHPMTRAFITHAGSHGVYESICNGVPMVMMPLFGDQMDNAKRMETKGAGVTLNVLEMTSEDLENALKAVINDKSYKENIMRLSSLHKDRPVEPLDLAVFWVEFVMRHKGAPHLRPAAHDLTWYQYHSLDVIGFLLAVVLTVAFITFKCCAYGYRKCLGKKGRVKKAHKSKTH
Description: Based on the lowest IC50 value, the inhibitor constant (Ki) values of the βC for UGT1A1 were determined. […] All incubations were performed in triplicate, and the mean values were used for the analysis. Other procedures were similar to those of the reversible inhibition studies.
as §1

[5] = target: T3, UGT1A1; assay: Prediction of in vivo drug interaction via UGT1A1 inhibition (AUCi/AUC = 1 + [I]in vivo/Ki); parameters: pooled human liver microsomes (final concentration 0.25 mg/mL); tissue Corning Life Sciences; host or cells: pooled human liver microsomes, 150 donors
Source text: As far as we know, for reversible inhibitors, the magnitude of the drug-drug interaction is affected by both the in vitro inhibition constant (Ki) and the in vivo inhibitor concentration. […] In this study, the maximum plasma concentration (Cmax) of βC was used as the [I]in vivo value, and the fraction metabolized by the UGT1A1 of the co-administrated drug was supposed to be 1.

[6] = recombinant UGT2B15 supersomes, 250 μM 4-methylumbelliferone, mean ± SD of triplicate, read-out: IC50 towards UGT2B15

Row | Compound | IC50 [1] [µM] | IC50 [2] [µM] | IC50 [1, 6] [µM] | Cmax [3] [nM] | Mode of inhibition of UGT1A1 ([4]; Dixon plots / nonlinear regression) | Ki ([4]; read-out: Ki against UGT1A1-catalyzed β-estradiol-3-glucuronidation, β-estradiol 5, 10 and 20 μM, nonlinear regression) [µM] | AUCi/AUC ratio for UGT1A1 ([5]; calculated from Cmax 0.15 μM and Ki, fraction metabolized by UGT1A1 supposed to be 1) | Predicted increase of AUC of co-administered drug ([5]; drugs that undergo 100% UGT1A1-mediated elimination) [%] | Residual UGT1A4 enzyme activity [2]
1 | CC1=C[C@H](O)CC(C)(C)[C@H]1/C=C/C(C)=C/C=C/C(C)=C/C=C/C=C(C)/C=C/C=C(C)/C=C/C1=C(C)C[C@@H](O)CC1(C)C [LU, lutein] | > 50 | 28.7 ± 3.79 |  |  |  |  |  |  | 
2 | CC1=C(/C=C/C(C)=C/C=C/C(C)=C/C=C/C=C(C)/C=C/C=C(C)/C=C/C2=C(C)C(=O)CCC2(C)C)C(C)(C)CCC1=O [CA, canthaxanthin] |  | > 50 | > 50 |  |  |  |  |  | 
3 | CC1=C(/C=C/C(C)=C/C=C/C(C)=C/C=C/C=C(C)/C=C/C=C(C)/C=C/C2=C(C)C[C@@H](O)CC2(C)C)C(C)(C)CCC1 [βC, β-cryptoxanthin] |  | 34.9 ± 5.98 | > 50 | ~150 | competitive inhibition | 12.2 ± 0.985 | 1.012 | 1.2 | 
4 | CC1=C(/C=C/C(C)=C/C=C/C(C)=C/C=C/C=C(C)/C=C/C=C(C)/C=C/C2=C(C)C[C@@H](O)CC2(C)C)C(C)(C)C[C@H](O)C1 [ZE, zeaxanthin] | > 50 | > 50 |  |  |  |  |  |  | greater than 80%
5 | CC1=C(/C=C/C(C)=C/C=C/C(C)=C/C=C/C=C(C)/C=C/C=C(C)/C=C/C2=C(C)C(=O)[C@@H](O)CC2(C)C)C(C)(C)C[C@H](O)C1=O [AS, astaxanthin] | > 50 | > 50 |  |  |  |  |  |  | greater than 80%
